Measured values reported in patent US7662824B2, “Acylhydrazones as kinase modulators” (Janssen Pharmaceutica NV, priority 2005, dated 2010).
In brackets after ≈: the same amount, converted by molar mass. Counter-ions that a name gives are not always drawn.

Tests used:
c-Met [1] = target: T1, c-Met (Homo sapiens, UniProt P08581); assay: Fluorescence polarization assay on the kinase activity of c-Met; format: biochemical; set-up: The c-Met kinase domain consists amino acid 1046-1390 of the c-Met protein; made in house; host or cells: Sf9 insect cells with baculovirus; conditions: 6H-TEV-cMet, poly Gly4Tyr substrate, 10 μM ATP; read-out: c-Met FP Enz IC50
Description: A fluorescence polarization assay (FP) was developed for screening of compounds that decreases the kinase activity of c-Met.
A protein (6H-TEV-cMet) comprising c-Met kinase domain was cloned, recombinantly expressed and purified following a procedure similar to that as described in Example A. The protein comprises a His tag consisting of six histidines at its N-terminal, a TEV protease cleavage site, and the c-Met kinase domain. The c-Met kinase domain consists amino acid 1046-1390 of the c-Met protein as listed in GenBank protein accession number P08581.
For the c-Met kinase assay, the 6H-TEV-cMet was used as the enzyme, and a poly Gly4Tyr peptide (Sigma, P-0275) was used as the substrate. The kinase reaction was performed in a volume of 10 μl in HE microplates (LJL Biosystems). Assay conditions were as follows: 100 mM HEPES pH 7.5, 0.01% Tween-20, 1 mM DTT, 5 mM MgCl2, 10 μM ATP, 10 μg/ml poly Gly4Tyr. The kinase reaction was initiated upon addition of 10 nM 6H-TEV-cMet. After a 12 minute incubation at room temperature the reaction was terminated with […] 50 mM EDTA.
Phosphorylation of the peptide substrate was detected with PanVera Tyrosine Kinase Assay Kit, Green reagents (P2837). Five minutes after the addition of EDTA, 10 μl of antibody/tracer mix (Pan Vera reagents, 1:1:3 dilution of antibody: Tracer: FP dilution buffer, Cat. # P2837) was added to each well. Plates were allowed to incubate for 30 minutes at room temperature and fluorescence polarization was measured with an LJL Analyst instrument (Molecular Devices; Sunnyvale, Calif.) with excitation=485 nm filter and emission=530 nm filter. IC50 values were calculated from triplicate sets of data using Graphpad Prism software (Graphpad Software; San Diego, Calif.).
Target sequence in this assay (P08581 1046-1390): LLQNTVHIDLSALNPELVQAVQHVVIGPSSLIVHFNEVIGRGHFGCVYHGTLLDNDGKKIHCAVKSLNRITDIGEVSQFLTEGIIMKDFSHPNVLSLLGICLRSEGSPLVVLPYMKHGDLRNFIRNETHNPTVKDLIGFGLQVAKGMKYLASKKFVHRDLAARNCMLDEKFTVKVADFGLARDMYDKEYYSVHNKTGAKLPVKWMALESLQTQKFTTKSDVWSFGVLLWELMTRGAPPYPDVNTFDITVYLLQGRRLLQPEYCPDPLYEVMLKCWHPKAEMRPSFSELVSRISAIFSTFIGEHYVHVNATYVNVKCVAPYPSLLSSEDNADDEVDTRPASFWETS

c-Met [2] = target: T1, c-Met; assay: Delfia autophosphorylation kinase assay on the c-Met; format: biochemical; set-up: The purified His6 tagged cytoplasmic domain of c-Met was diluted to a concentration of 500 ng/ml; made in house; host or cells: Sf9 insect cells with recombinant baculovirus; Large-scale expression and purification were done by the contract lab Pan Vera; conditions: His6 tagged cytoplasmic domain of c-Met, 1 μM ATP; read-out: c-Met Delfia Autophos IC50
Description: This example describes the cloning, expression, and purification of the cytoplasmic domain of c-Met which has the c-Met receptor tyrosine kinase activity.
A DELFIA time resolved fluorescence assay was developed for screening of compounds that decreases the autophosphorylation thus the kinase activity of c-Met.
The DELFIA assay is non-radioactive. The autophophorylation of the c-Met is measured by an anti-phosphotyrosine antibody coupled to an Europium tag.
A major advantage of this format is that it allowed for the development of an autophosphorylation assay using Ni-chelate plates which bind the hexa-his tag on the recombinant Met kinase. Autophosphorylation assay allows to use a known substrate, Met kinase itself, for the phosphorylation. The DELFIA Met autophosphorylation assay is very sensitive with a signal to noise ratio in excess of 50:1.
The assay procedure for screening is as follows. The purified His6 tagged cytoplasmic domain of c-Met was diluted to a concentration of 500 ng/ml in enzyme dilution buffer (50 mM Tris-HCl, pH8.0, 0.1% BSA) and dispensed to assay plates at a volume of 50 μl per well. Black opaque HisGrab Nickel coated 96 well plates (Pierce, Rockford, Ill.) were selected to run the assay. Next, 2.5 μl of compound in 40% DMSO was added to test wells, 2.5 μl of 40% DMSO only was added to the negative control wells. The autophosphorylation reaction was initiated upon the addition of 50 μl of reaction buffer, 50 mM Tris-HCl, pH 8.0, 10 mM MgCl2, 0.1 mM Na3VO4, 1 mM DTT, 1 μM ATP. Plates were incubated at room temperature for 1 hour followed by 2 washes with 200 μl/well of PBS. Europium conjugated anti-phosphotyrosine antibody, Eu-PY20 from Perkin Elmer was diluted to 50 ng/ml in Delfia AB buffer (Perkin Elmer, Boston, Mass.), added to the 96 well assay plates at a volume of […], and incubated at room temperature for 2 hours. Assay plates were then washed 4 times each with 200 μl/well of Delfia wash buffer (Perkin Elmer). After the final wash 150 μl of Delfia Enhancement solution (Perkin Elmer) was added to each well of the assay plate and incubated at room temperature for 1 hour. Plates were read on an LJL Analyst instrument (Molecular Devices; Sunnyvale, Calif.) with filter settings of 360 excitation, 620 emission, and 410 dichroic. IC50 values were calculated using Graphpad Prism software (Graphpad Software; San Diego, Calif.).
Target sequence in this assay (P08581 956-1390 limits assumed): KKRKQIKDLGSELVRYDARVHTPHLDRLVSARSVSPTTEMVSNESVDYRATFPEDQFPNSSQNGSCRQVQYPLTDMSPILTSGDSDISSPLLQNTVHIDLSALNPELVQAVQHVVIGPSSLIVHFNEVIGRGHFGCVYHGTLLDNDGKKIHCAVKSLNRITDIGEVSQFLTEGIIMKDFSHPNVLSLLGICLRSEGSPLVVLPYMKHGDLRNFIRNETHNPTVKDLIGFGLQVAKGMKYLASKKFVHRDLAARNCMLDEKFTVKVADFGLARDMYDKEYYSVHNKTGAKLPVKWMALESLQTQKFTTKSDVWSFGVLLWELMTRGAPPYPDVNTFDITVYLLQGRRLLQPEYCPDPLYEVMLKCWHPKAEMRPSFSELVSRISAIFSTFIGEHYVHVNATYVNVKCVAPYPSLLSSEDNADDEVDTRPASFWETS

Aqueous solubility assay = conditions: water with 0.4% DMSO, kinetic from dmso stock
Description: Water, PBS and aqueous HCl at pH2 having a final DMSO content of 0.4%, with the final DMSO concentration reaching 40 μM. Samples were placed in the incubator and shaken for 15 minutes.

| Compound | IC50 (c-Met [1]) | IC50 (c-Met [2]) | solubility at 15 min (Aqueous solubility assay) |
| --- | --- | --- | --- |
| 4-Bromo-3-[(2-2,3-dihydro-benzofuran-5-yl-acetyl)-hydrazono]-2-oxo-2,3-dihydro-1H-indole-6-carboxylic acid (3-morpholin-4-yl-propyl)-amide [Example 7] | 1 nM | 0.7 nM |  |
| O=C(Cc1ccc2c(c1)CCO2)N/N=C1/C(=O)Nc2cc(C(=O)NCCCN3CCC[C@H]3CO)cc(Br)c21 [Example 1, (S)-4-Bromo-3-[(2-2,3-dihydro-benzofuran-5-yl-acetyl)-hydrazono]-2-oxo-2,3-dihydro-1H-indole-6-carboxylic acid [3-(2-hydroxymethyl-pyrrolidin-1-yl)-propyl]-amide] |  | 6 nM |  |
| CN1CCN(C(=O)c2cc(Br)c3c(c2)NC(=O)/C3=N\NC(=O)Cc2ccc3c(c2)CCO3)CC1 [Example 2, (2,3-Dihydro-benzofuran-5-yl)-aceticacid[4-bromo-6-(4-methyl-piperazine-1-carbonyl)-2-oxo-1,2-dihydro-indol-3-ylidene]-hydrazide] |  | 10 nM | 43.9 µM (≈ 23.1 µg/mL) |
| O=C(Cc1ccc2c(c1)CCO2)N/N=C1\C(=O)Nc2cc(C(=O)NCCN3CCOCC3)ccc21 [Example 3, 3-[(2-2,3-Dihydro-benzofuran-5-yl-acetyl)-hydrazono]-2-oxo-2,3-dihydro-1H-indole-6-carboxylic acid(2-morpholin-4-yl-ethyl)-amide] | 24 nM | 24 nM | 38.1 µM (≈ 18.2 µg/mL) |
| CN1CCN(CCCNC(=O)c2ccc3c(c2)NC(=O)/C3=N\NC(=O)Cc2ccc3c(c2)CCO3)CC1 [Example 4, 3-[(2-2,3-Dihydro-benzofuran-5-yl-acetyl)-hydrazono]-2-oxo-2,3-dihydro-1H-indole-6-carboxylic acid [3-(4-methyl-piperazin-1-yl)-propyl]-amide] |  | 28 nM | 37.9 µM (≈ 19.1 µg/mL) |
| CN1CCN(CCCNC(=O)c2cc(Br)c3c(c2)NC(=O)/C3=N\NC(=O)Cc2ccc3c(c2)CCO3)CC1 [Example 5, 4-Bromo-3-[(2-2,3-dihydro-benzofuran-5-yl-acetyl)-hydrazono]-2-oxo-2,3-dihydro-1H-indole-6-carboxylic acid [3-(4-methyl-piperazin-1-yl)-propyl]-amide] | 13 nM | 1 nM | 38.8 µM (≈ 22.6 µg/mL) |
| O=C(Cc1ccc2c(c1)CCO2)N/N=C1\C(=O)Nc2cc(C(=O)NCCN3CCOCC3)cc(Br)c21 [Example 6, 4-Bromo-3-[(2-2,3-dihydro-benzofuran-5-yl-acetyl)-hydrazono]-2-oxo-2,3-dihydro-1H-indole-6-carboxylic acid (2-morpholin-4-yl-ethyl)-amide] | 5 nM | 5 nM | 44 µM (≈ 24.5 µg/mL) |
| CN(C)CCCNC(=O)c1cc(Br)c2c(c1)NC(=O)/C2=N\NC(=O)Cc1ccc2c(c1)CCO2 [Example 9, 4-Bromo-3-[(2-2,3-dihydro-benzofuran-5-yl-acetyl)-hydrazono]-2-oxo-2,3-dihydro-1H-indole-6-carboxylic acid (3-dimethylamino-propyl)-amide] |  | 5 nM |  |
| O=C(Cc1ccc2c(c1)CCO2)N/N=C1\C(=O)Nc2cc(C(=O)NCCCN3CC[C@@H](O)C3)cc(Br)c21 [Example 10, (R)-4-Bromo-3-[(2-2,3-dihydro-benzofuran-5-yl-acetyl)-hydrazono]-2-oxo-2,3-dihydro-1H-indole-6-carboxylic acid [3-(3-hydroxy-pyrrolidin-1-yl)-propyl]-amide] |  | 0.7 nM |  |

The remaining lines, values ahead:

| IC50 (c-Met [1]) | IC50 (c-Met [2]) | solubility at 15 min (Aqueous solubility assay) | Compound |
| --- | --- | --- | --- |
|  | 0.5 nM |  | O=C(Cc1ccc2c(c1)CCO2)N/N=C1\C(=O)Nc2cc(C(=O)NCCCN3CCC[C@@H]3CO)cc(Br)c21 [Example 11, (R)-4-Bromo-3-[(2-2,3-dihydro-benzofuran-5-yl-acetyl)-hydrazono]-2-oxo-2,3-dihydro-1H-indole-6-carboxylic acid [3-(2-hydroxymethyl-pyrrolidin-1-yl)-propyl]-amide] |
|  | 2 nM |  | O=C(Cc1ccc2c(c1)CCO2)N/N=C1\C(=O)Nc2cc(C(=O)NCCCN3CCC(O)CC3)cc(Br)c21 [Example 12, 4-Bromo-3-[(2-2,3-dihydro-benzofuran-5-yl-acetyl)-hydrazono]-2-oxo-2,3-dihydro-1H-indole-6-carboxylic acid [3-(4-hydroxy-piperidin-1-yl)-propyl]-amide] |
|  | 1 nM |  | O=C(Cc1ccc2c(c1)CCO2)N/N=C1\C(=O)Nc2cc(C(=O)NCCCN3CC[C@H](O)C3)cc(Br)c21 [Example 13, (S)-4-Bromo-3-[(2-2,3-dihydro-benzofuran-5-yl-acetyl)-hydrazono]-2-oxo-2,3-dihydro-1H-indole-6-carboxylic acid [3-(3-hydroxy-pyrrolidin-1-yl)-propyl]-amide] |
|  | 1.6 nM |  | CN(C)CCCNC(=O)c1cc(Br)c2c(c1)NC(=O)/C2=N\NC(=O)Cc1ccc2occc2c1 [Example 14, 3-[(2-Benzofuran-5-yl-acetyl)-hydrazono]-4-bromo-2-oxo-2,3-dihydro-1H-indole-6-carboxylic acid (3-dimethylamino-propyl)-amide] |
|  | 1 nM |  | O=C(Cc1ccc2c(c1)CCO2)N/N=C1\C(=O)Nc2cc(C(=O)NCCCO)cc(Br)c21 [Example 15, 4-Bromo-3-[(2-2,3-dihydro-benzofuran-5-yl-acetyl)-hydrazono]-2-oxo-2,3-dihydro-1H-indole-6-carboxylic acid (3-hydroxy-propyl)-amide] |
|  | 65 nM |  | CN1CCN(C(=O)c2cc(Br)c3c(c2)NC(=O)/C3=N\NC(=O)Cc2ccc3occc3c2)CC1 [Example 16, Benzofuran-5-yl-acetic acid [4-bromo-6-(4-methyl-piperazine-1-carbonyl)-2-oxo-1,2-dihydro-indol-3-ylidene]-hydrazide hydrochloride] |
|  | 656 nM |  | CN1CCN(C(=O)c2cc(Br)c3c(c2)NC(=O)/C3=N\NC(=O)Cc2ccc3ocnc3c2)CC1 [Example 17, Benzooxazol-5-yl-acetic acid [4-bromo-6-(4-methyl-piperazine-1-carbonyl)-2-oxo-1,2-dihydro-indol-3-ylidene]-hydrazide] |
|  | 4700 nM |  | CN1CCN(C(=O)c2cc(Br)c3c(c2)NC(=O)/C3=N\NC(=O)Cc2ccc3sccc3c2)CC1 [Example 18, Benzothiophen-5-yl-acetic acid [4-bromo-6-(4-methyl-piperazine-1-carbonyl)-2-oxo-1,2-dihydro-indol-3-ylidene]-hydrazide hydrochloride] |
|  | 158 nM |  | CN1CCN(C(=O)c2cc(Br)c3c(c2)NC(=O)/C3=N\NC(=O)Cc2ccc3onc(N)c3c2)CC1 [Example 19, (3-Amino-benzo[d]isoxazol-5-yl)-acetic acid [4-bromo-6-(4-methyl-piperazine-1-carbonyl)-2-oxo-1,2-dihydro-indol-3-ylidene]-hydrazide] |
